Test system: primary rat mixed cortical cells
Assay: In vitro myelination assay (MBP positive myelin strands, fold myelin pixels above background)
Format: cell-based
Conditions: Rattus norvegicus, relative to baseline of no added compound; for fold induction at 1 µM: 1.0 μM compound, read-out: Fold myelin pixels above background, 1.0 μM; for fold induction at 10 µM: 10.0 μM compound, read-out: Fold myelin pixels above background, 10.0 μM
Method in brief: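 Fourteen-day treatment of primary P1 rat mixed cortical cultures, re-dosed at days 6 and 10, at 1.0 μM and 10.0 μM. MBP immunofluorescence was imaged at 10× and myelin strands quantified by software, normalised to untreated wells as fold above background.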

Compound `Cc1cc(Nc2ncn(-c3ccccc3)n2)cc(NC2CCN(C3COC3)CC2)c1` [Compound 334, 5-methyl-N1-[1-(oxetan-3-yl)-4-piperidyl]-N3-(1-phenyl-1,2,4-triazol-3-yl)benzene-1,3-diamine] has a fold induction at 1 µM of 100 to 1000 and a fold induction at 10 µM of 1000 to 10000.

In the case of `Clc1cc(Nc2ncn(-c3ccccc3)n2)cc(N2CCOCC2)c1` [Compound 335, N-(3-chloro-5-morpholino-phenyl)-1-phenyl-1,2,4-triazol-3-amine], the fold induction at 1 µM is reported as 1000 to 10000 and the fold induction at 10 µM is reported as 10 to 100.

With `Fc1cc(Nc2ncn(-c3ccccc3)n2)cc(N2CCCC2)c1` [Compound 336, N-(3-fluoro-5-pyrrolidin-1-yl-phenyl)-1-phenyl-1,2,4-triazol-3-amine] the fold induction at 1 µM was 1 to 10 and the fold induction at 10 µM was at most 1.

`Cc1cc(Nc2ncn(-c3ccccc3)n2)cc(N2CCCN(C3CC3)CC2)c1` [Compound 337, N-[3-(4-cyclopropyl-1,4-diazepan-1-yl)-5-methyl-phenyl]-1-phenyl-1,2,4-triazol-3-amine] gave a fold induction at 1 µM of 100 to 1000 and a fold induction at 10 µM of at most 1.

Work on `CCc1cc(Nc2ncn(-c3cc(C)ccc3F)n2)cc(N2CCN(C3COC3)CC2)c1` [Compound 338, N-[3-ethyl-5-[4-(oxetan-3-yl)piperazin-1-yl]phenyl]-1-(2-fluoro-5-methyl-phenyl)-1,2,4-triazol-3-amine] yielded a fold induction at 1 µM of 1 to 10 and a fold induction at 10 µM of 10 to 100.

`Fc1cncc(-n2cnc(Nc3cc(C4CC4)cc(N4CCN(C5COC5)CC4)c3)n2)c1` [Compound 339, N-[3-cyclopropyl-5-[4-(oxetan-3-yl)piperazin-1-yl]phenyl]-1-(5-fluoro-3-pyridyl)-1,2,4-triazol-3-amine] gave a fold induction at 1 µM of 100 to 1000 and a fold induction at 10 µM of 10 to 100.

`Cc1cc(Nc2ncn(-c3ccccc3)n2)cc(C2CCCN(C3CC3)C2)c1` (stereo not drawn) [Compound 340, N-[3-(1-cyclopropyl-3-piperidyl)-5-methyl-phenyl]-1-phenyl-1,2,4-triazol-3-amine] gave a fold induction at 1 µM of 100 to 1000 and a fold induction at 10 µM of at most 1.

With `CCc1cc(Nc2ncn(-c3cnccn3)n2)cc(N2CC(N3CCOCC3)C2)c1` [Compound 341, N-[3-ethyl-5-(3-morpholinoazetidin-1-yl)phenyl]-1-pyrazin-2-yl-1,2,4-triazol-3-amine] the fold induction at 1 µM was at most 1 and the fold induction at 10 µM was 1 to 10.

`Cc1cc(Nc2ncn(-c3cccnc3)n2)cc(NC2CCN(C3COC3)CC2)c1` [Compound 342, 5-methyl-N1-[1-(oxetan-3-yl)-4-piperidyl]-N3-[1-(3-pyridyl)-1,2,4-triazol-3-yl]benzene-1,3-diamine] showed a fold induction at 1 µM of 1000 to 10000 and a fold induction at 10 µM of 10 to 100.

Work on `Fc1cc(Nc2ncn(-c3ccc(F)cc3F)n2)cc(N2CCCOCC2)c1` [Compound 343, 1-(2,4-difluorophenyl)-N-[3-fluoro-5-(1,4-oxazepan-4-yl)phenyl]-1,2,4-triazol-3-amine] yielded a fold induction at 1 µM of at most 1 and a fold induction at 10 µM of 100 to 1000.

`CS(=O)(=O)c1cc(Nc2ncn(-c3cc(F)cc(F)c3)n2)cc(N2CCN(C3COC3)CC2)c1` [Compound 344, 1-(3,5-difluorophenyl)-N-[3-methylsulfonyl-5-[4-(oxetan-3-yl)piperazin-1-yl]phenyl]-1,2,4-triazol-3-amine] was tested, and the fold induction at 1 µM was 100 to 1000 and the fold induction at 10 µM was 10 to 100.

In the case of `COc1ccc(-n2cnc(Nc3cc(Cl)nc(N4CCOCC4)c3)n2)cc1OC` [Compound 345, 2-chloro-N-[1-(3,4-dimethoxyphenyl)-1,2,4-triazol-3-yl]-6-morpholino-pyridin-4-amine], the fold induction at 1 µM is reported as 10 to 100 and the fold induction at 10 µM is reported as 1 to 10.

In the case of `Fc1cc(F)cc(-n2cnc(Nc3cc(Br)cc(N4CCOCC4)c3)n2)c1` [Compound 346, N-(3-bromo-5-morpholino-phenyl)-1-(3,5-difluorophenyl)-1,2,4-triazol-3-amine], the fold induction at 1 µM is reported as 1000 to 10000 and the fold induction at 10 µM is reported as 1000 to 10000.

In the case of `CN(C)C1CCN(c2cc(F)cc(Nc3ncn(-c4ccc(F)cc4F)n3)c2)C1` (stereo not drawn) [Compound 347, 1-(2,4-difluorophenyl)-N-[3-[3-(dimethylamino)pyrrolidin-1-yl]-5-fluoro-phenyl]-1,2,4-triazol-3-amine], the fold induction at 1 µM is reported as at most 1 and the fold induction at 10 µM is reported as at most 1.

In the case of `FC(F)c1cc(Nc2ncn(-c3ccccc3)n2)cc(N2CCN(C3CC3)CC2)c1` [Compound 348, N-[3-(4-cyclopropylpiperazin-1-yl)-5-(difluoromethyl)phenyl]-1-phenyl-1,2,4-triazol-3-amine], the fold induction at 1 µM is reported as 1000 to 10000 and the fold induction at 10 µM is reported as 100 to 1000.

Compound `Cc1cc(Nc2ncn(-c3cc(F)cc(F)c3)n2)cc(N2CCN(C)C3(COC3)C2)c1` [Compound 349, 1-(3,5-difluorophenyl)-N-[3-methyl-5-(9-methyl-2-oxa-6,9-diazaspiro[3.5]nonan-6-yl)phenyl]-1,2,4-triazol-3-amine] has a fold induction at 1 µM of 10 to 100 and a fold induction at 10 µM of 100 to 1000.

In the case of `Cc1cc(Nc2ncn(-c3cc(F)cc(F)c3)n2)cc(N2CCN(C(=O)OCC(F)(F)F)CC2)c1` [Compound 350, 2,2,2-trifluoroethyl 4-[3-[[1-(3,5-difluorophenyl)-1,2,4-triazol-3-yl]amino]-5-methyl-phenyl]piperazine-1-carboxylate], the fold induction at 1 µM is reported as at most 1 and the fold induction at 10 µM is reported as at most 1.

`Fc1cc(Nc2ncn(-c3cccc(F)c3)n2)cc(NC2CNC2)c1` [Compound 351, N1-(azetidin-3-yl)-5-fluoro-N3-[1-(3-fluorophenyl)-1,2,4-triazol-3-yl]benzene-1,3-diamine] gave a fold induction at 1 µM of 10 to 100 and a fold induction at 10 µM of at most 1.

Work on `Cc1cc(Nc2ncn(-c3cc(F)cc(F)c3)n2)cc(N2CCN(C(=O)C(F)(F)F)CC2)c1` [Compound 352, 1-[4-[3-[[1-(3,5-difluorophenyl)-1,2,4-triazol-3-yl]amino]-5-methyl-phenyl]piperazin-1-yl]-2,2,2-trifluoro-ethanone] yielded a fold induction at 1 µM of at most 1 and a fold induction at 10 µM of 100 to 1000.

Work on `COCc1cc(-n2cnc(Nc3cc(C4CC4)cc(N4CCN(C5COC5)CC4)c3)n2)ncn1` [Compound 353, N-[3-cyclopropyl-5-[4-(oxetan-3-yl)piperazin-1-yl]phenyl]-1-[6-(methoxymethyl)pyrimidin-4-yl]-1,2,4-triazol-3-amine] yielded a fold induction at 1 µM of 1000 to 10000 and a fold induction at 10 µM of 100 to 1000.

With `COc1ccc(-n2cnc(Nc3cc(C4CC4)nc(N4CCOCC4)c3)n2)cc1OC` [Compound 354, 2-cyclopropyl-N-[1-(3,4-dimethoxyphenyl)-1,2,4-triazol-3-yl]-6-morpholino-pyridin-4-amine] the fold induction at 1 µM was 1 to 10 and the fold induction at 10 µM was 100 to 1000.

Compound `Cc1cc(Nc2ncn(-c3cc(F)cc(F)c3)n2)cc(N2CC(O)C2)c1` [Compound 355, 1-[3-[[1-(3,5-difluorophenyl)-1,2,4-triazol-3-yl]amino]-5-methyl-phenyl]azetidin-3-ol] has a fold induction at 1 µM of 10 to 100 and a fold induction at 10 µM of 100 to 1000.

Work on `Cc1cc(Nc2ncn(-c3ccc(C(F)(F)F)cc3)n2)cc(N2CCCC2)c1` [Compound 356, N-(3-methyl-5-pyrrolidin-1-yl-phenyl)-1-[4-(trifluoromethyl)phenyl]-1,2,4-triazol-3-amine] yielded a fold induction at 1 µM of at most 1 and a fold induction at 10 µM of 10 to 100.

In the case of `FC(F)(F)c1cc(Nc2ncn(-c3cnccn3)n2)cc(N2CCOCC2)c1` [Compound 357, N-[3-morpholino-5-(trifluoromethyl)phenyl]-1-pyrazin-2-yl-1,2,4-triazol-3-amine], the fold induction at 1 µM is reported as 1 to 10 and the fold induction at 10 µM is reported as 1 to 10.

— patent US10766869B2, “Triazoles for the treatment of demyelinating dieases” (Vertex Pharmaceuticals Incorporated, priority 2015, dated 2020)
